These results are taken from US12410208B2, “(2-acetamidyl)thio-beta-D-galactopyranoside derivatives” (Idorsia Pharmaceuticals Ltd, priority 2020, dated 2025).

Experiment [1] concerns the target biotinylated human Gal-3 (hGal-3) (Homo sapiens, UniProt P17931). In words: Competitive binding assay: biotinylated hGal-3 binding to microplate-adsorbed asialofetuin (ASF), spectrophotometric. Particulars: Gal-3 inhibition, read-out: IC50. In short, it runs like this:
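Competitive binding of biotinylated hGal-3 to plate-adsorbed asialofetuin was measured with serially diluted compounds over 3 h at 4° C. Bound protein was detected with streptavidin-peroxidase and ABTS substrate by absorbance. IC50 values are means of several measurements.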

For the next experiment, the target named is human Gal-1 (hGal-1) (Homo sapiens, UniProt P09382). In words: Competitive binding assay: biotinylated hGal-1 binding to microplate-adsorbed asialofetuin (ASF), spectrophotometric. Particulars: hGal-1 binding to asialofetuin; Table 15; R and S epimers of selected Examples also listed; read-out: IC50 (Galectin-1 inhibition). In short, it runs like this:
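Biotinylated hGal-1 (300-1000 ng/mL) incubated with compound on asialofetuin-coated plates 3 hours at 4 °C, washed, then streptavidin-peroxidase (80 ng/mL) 1 hour at 4 °C. ABTS substrate read spectrophotometrically; IC50 reported as mean of several measurements.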

Like-named read-outs stand apart in the source and are kept apart here. Bounds are passed on as bounds.

Chain of biotinylated human Gal-3 (hGal-3) (P17931 whole entry): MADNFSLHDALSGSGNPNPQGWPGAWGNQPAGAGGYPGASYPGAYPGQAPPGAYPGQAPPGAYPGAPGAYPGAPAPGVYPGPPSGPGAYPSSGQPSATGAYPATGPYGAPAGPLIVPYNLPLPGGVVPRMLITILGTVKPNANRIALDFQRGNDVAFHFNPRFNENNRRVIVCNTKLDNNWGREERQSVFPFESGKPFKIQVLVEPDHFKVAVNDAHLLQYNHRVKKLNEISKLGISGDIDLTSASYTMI
Chain of human Gal-1 (hGal-1) (P09382 whole entry): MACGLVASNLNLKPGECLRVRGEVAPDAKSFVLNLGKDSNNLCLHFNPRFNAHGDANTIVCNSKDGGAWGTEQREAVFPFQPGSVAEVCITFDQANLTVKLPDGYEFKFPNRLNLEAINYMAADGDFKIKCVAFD

Broadly, the IC50 is the concentration needed to halve the response being measured. As for `CCN(C)C(=O)[C@H](S[C@@H]1O[C@H](CO)[C@H](O)[C@H](n2cc(-c3cc(F)c(F)c(F)c3)nn2)[C@H]1O)C1(O)CCOCC1` [Example 2.41.203R., (R)-2-(((2S,3R,4S,5R,6R)-3,5-Dihydroxy-6-(hydroxymethyl)-4-(4-(3,4,5-trifluorophenyl)-1H-1,2,3-triazol-1-yl)tetrahydro-2H-pyran-2-yl)thio)-N-ethyl-2-(4-hydroxytetrahydro-2H-pyran-4-yl)-N-methylacetamide], the values for the IC50 (in experiment [1] (Table 5); on human Gal-1 (hGal-1)) were 4430 nM and above 39800 nM, respectively.
On to `CCN(C)C(=O)[C@@H](S[C@@H]1O[C@H](CO)[C@H](O)[C@H](n2cc(-c3cc(F)c(F)c(F)c3)nn2)[C@H]1O)C1(O)CCOCC1` [Example 2.41.203S., (S)-2-(((2S,3R,4S,5R,6R)-3,5-Dihydroxy-6-(hydroxymethyl)-4-(4-(3,4,5-trifluorophenyl)-1H-1,2,3-triazol-1-yl)tetrahydro-2H-pyran-2-yl)thio)-N-ethyl-2-(4-hydroxytetrahydro-2H-pyran-4-yl)-N-methylacetamide], for which the values for the IC50 (in experiment [1] (Table 5); on human Gal-1 (hGal-1)) were 30 nM and 67 nM, respectively.
For the compound `CC1CCN1C(=O)C(S[C@@H]1O[C@H](CO)[C@H](O)[C@H](n2cc(-c3cc(F)c(F)c(F)c3)nn2)[C@H]1O)C1(O)CCOCC1` (stereo partly drawn) [Example 2.41.204., 2-(((2S,3R,4S,5R,6R)-3,5-Dihydroxy-6-(hydroxymethyl)-4-(4-(3,4,5-trifluorophenyl)-1H-1,2,3-triazol-1-yl)tetrahydro-2H-pyran-2-yl)thio)-2-(4-hydroxytetrahydro-2H-pyran-4-yl)-1-(2-methylazetidin-1-yl)ethan-1-one], the IC50 in experiment [1] (Table 4) stood at 210 nM; on human Gal-1 (hGal-1), 950 nM.
As for `CC1CN(C(=O)[C@H](S[C@@H]2O[C@H](CO)[C@H](O)[C@H](n3cc(-c4cc(F)c(F)c(F)c4)nn3)[C@H]2O)C2(O)CCOCC2)C1` [Example 2.41.205R., (R)-2-(((2S,3R,4S,5R,6R)-3,5-Dihydroxy-6-(hydroxymethyl)-4-(4-(3,4,5-trifluorophenyl)-1H-1,2,3-triazol-1-yl)tetrahydro-2H-pyran-2-yl)thio)-2-(4-hydroxytetrahydro-2H-pyran-4-yl)-1-(3-methylazetidin-1-yl)ethan-1-one], the values for the IC50 (in experiment [1] (Table 4); on human Gal-1 (hGal-1)) were 1000 nM and 4900 nM, respectively.
As for `CC1CN(C(=O)[C@@H](S[C@@H]2O[C@H](CO)[C@H](O)[C@H](n3cc(-c4cc(F)c(F)c(F)c4)nn3)[C@H]2O)C2(O)CCOCC2)C1` [Example 2.41.205S., (S)-2-(((2S,3R,4S,5R,6R)-3,5-Dihydroxy-6-(hydroxymethyl)-4-(4-(3,4,5-trifluorophenyl)-1H-1,2,3-triazol-1-yl)tetrahydro-2H-pyran-2-yl)thio)-2-(4-hydroxytetrahydro-2H-pyran-4-yl)-1-(3-methylazetidin-1-yl)ethan-1-one], the IC50 in experiment [1] (Table 4) is 120 nM; on human Gal-1 (hGal-1), 550 nM.
Consider `O=C(C(S[C@@H]1O[C@H](CO)[C@H](O)[C@H](n2cc(-c3cc(F)c(F)c(F)c3)nn2)[C@H]1O)C1(O)CCOCC1)N1CCC1` (stereo partly drawn) [Example 2.41.206., 1-(Azetidin-1-yl)-2-(((2S,3R,4S,5R,6R)-3,5-dihydroxy-6-(hydroxymethyl)-4-(4-(3,4,5-trifluorophenyl)-1H-1,2,3-triazol-1-yl)tetrahydro-2H-pyran-2-yl)thio)-2-(4-hydroxytetrahydro-2H-pyran-4-yl)ethan-1-one], for which the IC50 was 260 nM in experiment [1] (Table 4) and 1500 nM at human Gal-1 (hGal-1).
As to `CN(Cc1ccccc1)C(=O)C(S[C@@H]1O[C@H](CO)[C@H](O)[C@H](n2cc(-c3cc(F)c(F)c(F)c3)nn2)[C@H]1O)C1(O)CCOCC1` (stereo partly drawn) [Example 2.41.207., N-Benzyl-2-(((2S,3R,4S,5R,6R)-3,5-dihydroxy-6-(hydroxymethyl)-4-(4-(3,4,5-trifluorophenyl)-1H-1,2,3-triazol-1-yl)tetrahydro-2H-pyran-2-yl)thio)-2-(4-hydroxytetrahydro-2H-pyran-4-yl)-N-methylacetamide], the IC50 in experiment [1] (Table 4) amounted to 70 nM; at human Gal-1 (hGal-1), 72 nM.
The like results for `CN(Cc1ccccc1)C(=O)[C@H](S[C@@H]1O[C@H](CO)[C@H](O)[C@H](n2cc(-c3cc(F)c(F)c(F)c3)nn2)[C@H]1O)C1(O)CCOCC1` [Example 2.41.207R., (R)-N-Benzyl-2-(((2S,3R,4S,5R,6R)-3,5-dihydroxy-6-(hydroxymethyl)-4-(4-(3,4,5-trifluorophenyl)-1H-1,2,3-triazol-1-yl)tetrahydro-2H-pyran-2-yl)thio)-2-(4-hydroxytetrahydro-2H-pyran-4-yl)-N-methylacetamide] were, in that order, 8230 nM and 51500 nM.
In the case of `O=C(C(S[C@@H]1O[C@H](CO)[C@H](O)[C@H](n2cc(-c3cc(F)c(F)c(F)c3)nn2)[C@H]1O)C1(O)CCOCC1)N1CCCCC1` (stereo partly drawn) [Example 2.41.208., 2-(((2S,3R,4S,5R,6R)-3,5-Dihydroxy-6-(hydroxymethyl)-4-(4-(3,4,5-trifluorophenyl)-1H-1,2,3-triazol-1-yl)tetrahydro-2H-pyran-2-yl)thio)-2-(4-hydroxytetrahydro-2H-pyran-4-yl)-1-(piperidin-1-yl)ethan-1-one], the IC50 in experiment [1] (Table 4) came out at 90 nM; on human Gal-1 (hGal-1) it was 220 nM.
On to `O=C([C@H](S[C@@H]1O[C@H](CO)[C@H](O)[C@H](n2cc(-c3cc(F)c(F)c(F)c3)nn2)[C@H]1O)C1(O)CCOCC1)N1CCCCC1` [Example 2.41.208R., (R)-2-(((2S,3R,4S,5R,6R)-3,5-Dihydroxy-6-(hydroxymethyl)-4-(4-(3,4,5-trifluorophenyl)-1H-1,2,3-triazol-1-yl)tetrahydro-2H-pyran-2-yl)thio)-2-(4-hydroxytetrahydro-2H-pyran-4-yl)-1-(piperidin-1-yl)ethan-1-one], for which the figures for the IC50 (in experiment [1] (Table 4); at human Gal-1 (hGal-1)) were 1650 nM and 32300 nM, respectively.
For the compound `O=C([C@@H](S[C@@H]1O[C@H](CO)[C@H](O)[C@H](n2cc(-c3cc(F)c(F)c(F)c3)nn2)[C@H]1O)C1(O)CCOCC1)N1CCCCC1` [Example 2.41.208S., (S)-2-(((2S,3R,4S,5R,6R)-3,5-Dihydroxy-6-(hydroxymethyl)-4-(4-(3,4,5-trifluorophenyl)-1H-1,2,3-triazol-1-yl)tetrahydro-2H-pyran-2-yl)thio)-2-(4-hydroxytetrahydro-2H-pyran-4-yl)-1-(piperidin-1-yl)ethan-1-one], the IC50 in experiment [1] (Table 4) worked out at 20 nM; on human Gal-1 (hGal-1), 800 nM.
For `O=C(C(S[C@@H]1O[C@H](CO)[C@H](O)[C@H](n2cc(-c3cc(F)c(F)c(F)c3)nn2)[C@H]1O)C1(O)CCOCC1)N1CCc2ccccc21` (stereo partly drawn) [Example 2.41.209., 2-(((2S,3R,4S,5R,6R)-3,5-Dihydroxy-6-(hydroxymethyl)-4-(4-(3,4,5-trifluorophenyl)-1H-1,2,3-triazol-1-yl)tetrahydro-2H-pyran-2-yl)thio)-2-(4-hydroxytetrahydro-2H-pyran-4-yl)-1-(indolin-1-yl)ethan-1-one] the same measures were 150 nM and 310 nM.
For `O=C([C@@H](S[C@@H]1O[C@H](CO)[C@H](O)[C@H](n2cc(-c3cc(F)c(F)c(F)c3)nn2)[C@H]1O)C1(O)CCOCC1)N1CCc2ccccc21` [Example 2.41.209S., (S)-2-(((2S,3R,4S,5R,6R)-3,5-Dihydroxy-6-(hydroxymethyl)-4-(4-(3,4,5-trifluorophenyl)-1H-1,2,3-triazol-1-yl)tetrahydro-2H-pyran-2-yl)thio)-2-(4-hydroxytetrahydro-2H-pyran-4-yl)-1-(indolin-1-yl)ethan-1-one], the values for the IC50 (in experiment [1] (Table 4); on human Gal-1 (hGal-1)) were 100 nM and 170 nM, respectively.
